Data taken from article PMC5507300, “Antibacterial small molecules targeting the conserved TOPRIM domain of DNA gyrase” (PLoS ONE, 2017).
Converted amounts (≈) assume the structure as drawn. “And” between values parts separate entries of the source, which are not always exact repeats. Equal values may be shown once. Read-outs that look alike come from different tables or passages of the source.

Legend:
Type in all cases: cell-based
[1] = tested on: E. coli HS151 (ΔtolC); experiment: microbe, parasite or virus in culture; details: Escherichia coli
Description: (§1) E. coli HS151 (ΔtolC) has been described previously. […] E. coli BW25113 and the Keio gene deletion collection based on BW25113 [25] were obtained from Thermo Fisher Scientific (Waltham, MA) and described in [26]. The plasmid-borne FQ resistance determinant, qnrVC3 [27], was kindly provided by D. Hooper (Massachusetts General Hospital). […] MB2884 (E. coli) and CL15245 (K. pneumoniae) are clinical isolates from the Merck & Co., Inc., Kenilworth, NJ, USA, strain collection. S. aureus COL is a methicillin-resistant clinical isolate.
(§2) Compound doubling dilutions were prepared in 100% DMSO (Sigma Aldrich) and 2 μL of each dilution was transferred to a 96-well plate with lid (Thermo Scientific). Inoculum for all MIC testing was prepared using the BBL Prompt Inoculation System (Becton Dickinson, Franklin Lakes, NJ USA) as described by the manufacturer to produce a suspension of cells at approximately 1.5 x 10^8 colony forming units (CFU)/mL [34–36] and a further dilution (1:1000) was made into cation adjusted Mueller-Hinton broth (CAMH broth, Becton-Dickinson). One hundred μL of this inoculum were then transferred to each well of the 96-well plate containing diluted compound (above). Plates were covered and incubated overnight (18 hrs.) at 37°C.

[2] = tested on: P. aeruginosa(effluxΔ) MB5890; experiment: microbe, parasite or virus in culture; details: Pseudomonas aeruginosa
Description: as §1, §2

[3] = tested on: E. coli MB2884 (clinical isolate); experiment: Broth microdilution MIC, E. coli MB2884; details: Escherichia coli
Description: as §1, §2

[4] = tested on: A. baumannii ΔlpxC MB9796; experiment: Broth microdilution MIC, A. baumannii MB9796; details: Acinetobacter baumannii
Description: (§3) E. coli HS151 (ΔtolC) has been described previously. Gyrase inhibitor-resistant isolates (GYR101-108) were derived by selection for spontaneous resistance to MRL-770 or MRL-423 (Fig 1) in E. coli HS151 as described below. E. coli BW25113 and the Keio gene deletion collection based on BW25113 [25] were obtained from Thermo Fisher Scientific (Waltham, MA) and described in [26]. The plasmid-borne FQ resistance determinant, qnrVC3 [27], was kindly provided by D. Hooper (Massachusetts General Hospital). MB9796 (A. baumannii) is a derivative of MB9797 (ATCC19606) lacking lipopolysaccharide. The efflux-defective P. aeruginosa strain MB5890 (CB398) is a derivative of MB5919 (PAO1). MB2884 (E. coli) and CL15245 (K. pneumoniae) are clinical isolates from the Merck & Co., Inc., Kenilworth, NJ, USA, strain collection. S. aureus COL is a methicillin-resistant clinical isolate.
as §2

[5] = tested on: A. baumanii MB9797 (ATCC19606); experiment: Broth microdilution MIC, A. baumannii MB9797; details: Acinetobacter baumannii
Description: as §3, §2

[6] = tested on: P. aeruginosa MB5919 (PAO1); experiment: Broth microdilution MIC, P. aeruginosa MB5919; details: Pseudomonas aeruginosa
Description: as §1, §2

[7] = tested on: K. pneumoniae CL15245 (clinical isolate); experiment: Broth microdilution MIC, K. pneumoniae CL15245; details: Klebsiella pneumoniae
Description: as §1, §2

[8] = tested on: S. aureus (MRSA) COL; experiment: Broth microdilution MIC, S. aureus COL; details: Staphylococcus aureus, MRSA
Description: as §3, §2

[9] = tested on: E. coli GYR103 GyrB L446Q; experiment: microbe, parasite or virus in culture; details: Escherichia coli
Description: as §3, §2
After the agar solidified, 5 μL of a saturated bacterial culture, grown in CAMH broth, were dispensed on the agar surface and allowed to dry at room temperature. […] To select for resistance, a 100 mm petri dish was filled with 25 mL CAMH agar containing 8 μg/mL MRL-770 or 0.5 μg/mL MRL-423 (Fig 1). The cells in 1 mL of an overnight culture of E. coli HS151 (~10^9 CFU/mL) were concentrated by centrifugation and spread onto the surface of an MRL-770 or MRL-423 containing plate. After the surface dried at room temperature the plate was incubated at 37°C overnight. Any colonies that arose were counted and an approximate frequency of resistance was calculated after confirming resistance by restreaking on media containg compound as well as measuring MICs (see Results). Genomic DNA from the parent strain (E. coli HS151) and purified (restreaked) resistant isolates was obtained with a GeneJET genomic DNA purification kit according to the manufacturer’s instructions (Fisher Scientific). Assembled whole genome mutant sequences were then compared to the parent strain and polymorphisms were identified as described.

[10] = tested on: E. coli GYR101 GyrB F513L; experiment: microbe, parasite or virus in culture; details: Escherichia coli
Description: as §1, §2
(§4) After the agar solidified, 5 μL of a saturated bacterial culture, grown in CAMH broth, were dispensed on the agar surface and allowed to dry at room temperature. […] After the surface dried at room temperature the plate was incubated at 37°C overnight. […] Genomic DNA from the parent strain (E. coli HS151) and purified (restreaked) resistant isolates was obtained with a GeneJET genomic DNA purification kit according to the manufacturer’s instructions (Fisher Scientific). Assembled whole genome mutant sequences were then compared to the parent strain and polymorphisms were identified as described.

[11] = tested on: E. coli GYR102 GyrB E466EV; experiment: microbe, parasite or virus in culture; details: Escherichia coli
Description: as §1, §2, §4

[12] = tested on: E. coli GYR104 GyrB L470I; experiment: microbe, parasite or virus in culture; details: Escherichia coli
Description: as §1, §2, §4

[13] = tested on: E. coli GYR105 GyrB T469K; experiment: microbe, parasite or virus in culture; details: Escherichia coli
Description: as §1, §2, §4

[14] = tested on: E. coli GYR106 GyrB F513L/A468V; experiment: microbe, parasite or virus in culture; details: Escherichia coli
Description: as §1, §2, §4

[15] = tested on: E. coli GYR107 GyrB F513L/L422V; experiment: microbe, parasite or virus in culture; details: Escherichia coli
Description: as §1, §2, §4

[16] = tested on: E. coli GYR108 GyrB L470I/V467L; experiment: microbe, parasite or virus in culture; details: Escherichia coli
Description: as §1, §2, §4

[17] = tested on: E. coli CIP101 GyrA D87N; experiment: microbe, parasite or virus in culture; details: Escherichia coli
Experimental: as §2

[18] = tested on: HeLa Cell; experiment: HeLa cell cytotoxicity; details: for EC50: Homo sapiens, HeLa, Average value (n = 2), cytotoxicity; for Fold above MIC: HeLa EC50 relative to MIC for E. coli HS151
[19] = Table 2, HS151, GyrB mutation none
[20] = read-out: E. coli HS151 MIC, S1 Table

Cn1ncc2cc(-c3cnnn3C3CCN(C(=O)Nc4cc(Cl)cc(Cl)c4)CC3)ccc21 [MRL-423]
MIC ([1]; Table 1, HS151 E. coli ΔtolC): 0.25 µg/mL
MIC [1, 19]: 0.25 µg/mL
MIC ([1]; Table 3, HS151): 0.25 µg/mL
MIC [1, 20]: 0.53 µM
MIC [2]: 1 µg/mL (≈ 2.13 µM)
MIC [3]: > 64 µg/mL
MIC [4]: 0.5 µg/mL (≈ 1.06 µM)
MIC [5]: > 64 µg/mL
MIC [6]: > 64 µg/mL
MIC [7]: > 64 µg/mL
MIC [8]: > 64 µg/mL
MIC [9]: 0.5 µg/mL (≈ 1.06 µM)
MIC [10]: 2 µg/mL (≈ 4.25 µM)
MIC [11]: > 64 µg/mL
MIC [12]: 1 µg/mL (≈ 2.13 µM)
MIC [13]: 1 µg/mL (≈ 2.13 µM)
MIC [14]: > 64 µg/mL
MIC [15]: > 64 µg/mL
MIC [16]: > 64 µg/mL
MIC [17]: 0.25 µg/mL (≈ 0.532 µM)
EC50 [18]: 27.1 µM

COc1ccc(C)cc1NC(=O)N1CCC(n2nncc2-c2ccc3c(cnn3C)c2)CC1 [MRL-770]
MIC ([1]; Table 1, HS151 E. coli ΔtolC): 2 µg/mL
MIC [1, 19]: 2 µg/mL
MIC [1, 20]: 4.5 µM
MIC ([1]; read-out: minimum inhibitory concentration (MIC), quoted in text with macromolecule labeling in E. coli JL553, strain not named at place, value equals HS151): 4.5 µM and 2 µg/mL
MIC [2]: 4 µg/mL (≈ 8.98 µM)
MIC [3]: > 64 µg/mL
MIC [4]: 4 µg/mL (≈ 8.98 µM)
MIC [5]: > 64 µg/mL
MIC [6]: > 64 µg/mL
MIC [7]: > 64 µg/mL
MIC [8]: > 64 µg/mL
MIC [9]: > 64 µg/mL
MIC [10]: > 64 µg/mL
MIC [11]: > 64 µg/mL
MIC [12]: > 64 µg/mL
MIC [13]: 1 µg/mL (≈ 2.24 µM)
MIC [14]: > 64 µg/mL
MIC [15]: > 64 µg/mL
MIC [16]: > 64 µg/mL
MIC [17]: 2 µg/mL (≈ 4.49 µM)
Fold above MIC [18]: > 22 fold
EC50 [18]: > 100 µM

Cn1ncc2cc(-c3nnnn3C3CCN(C(=O)Nc4ccc(Cl)c(Cl)c4)CC3)ccc21 [MRL-1082]
MIC ([1]; Fig 4 legend, E. coli HS151): 0.0625 µg/mL
MIC ([1]; Table 1, HS151 E. coli ΔtolC): 0.0625 µg/mL
MIC [1, 19]: 0.0625 µg/mL
MIC [1, 20]: 0.13 µM
MIC [2]: 0.25 µg/mL (≈ 0.53 µM)
MIC [3]: > 64 µg/mL
MIC [4]: 0.5 µg/mL (≈ 1.06 µM)
MIC [5]: > 64 µg/mL
MIC [6]: > 64 µg/mL
MIC [7]: > 64 µg/mL
MIC [8]: > 64 µg/mL
MIC [9]: 0.0625 µg/mL (≈ 0.133 µM)
MIC [10]: > 64 µg/mL
MIC [11]: 8 µg/mL (≈ 17 µM)
MIC [12]: 0.25 µg/mL (≈ 0.53 µM)
MIC [13]: 0.25 µg/mL (≈ 0.53 µM)
MIC [14]: > 64 µg/mL
MIC [15]: > 64 µg/mL
MIC [16]: 2 µg/mL (≈ 4.24 µM)
MIC [17]: 0.125 µg/mL (≈ 0.265 µM)
Fold above MIC [18]: 140 fold
EC50 [18]: 18.2 µM
